Laboratory results as given in patent US20260200947A1, “FUSED CYCLIC COMPOUNDS AND USE THEREOF” (Jacobio Pharmaceuticals Co., Ltd., priority 2022, published 2026).
Read-outs that look alike come from different tables or passages of the source.

Assays:
[1] = biological target: GDP-KRAS G12D (Homo sapiens, UniProt P01116, G12D); assay: biochemical
[2] = biological target: GDP-KRAS G12V (Homo sapiens, UniProt P01116, G12V); assay: biochemical
[3] = biological target: GppNp-KRAS G12D (Homo sapiens, UniProt P01116, G12D); assay: biochemical
Chain of GppNp-KRAS G12D (P01116 1-169 isoform P01116-2 G12D): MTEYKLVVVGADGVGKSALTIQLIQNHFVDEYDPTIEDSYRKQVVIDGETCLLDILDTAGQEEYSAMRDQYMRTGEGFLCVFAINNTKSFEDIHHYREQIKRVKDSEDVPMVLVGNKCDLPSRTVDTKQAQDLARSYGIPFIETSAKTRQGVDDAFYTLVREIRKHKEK

[4] = biological target: GppNp-KRAS G12V (Homo sapiens, UniProt P01116, G12V); assay: biochemical
Chain of GppNp-KRAS G12V (P01116 1-169 isoform P01116-2 G12V): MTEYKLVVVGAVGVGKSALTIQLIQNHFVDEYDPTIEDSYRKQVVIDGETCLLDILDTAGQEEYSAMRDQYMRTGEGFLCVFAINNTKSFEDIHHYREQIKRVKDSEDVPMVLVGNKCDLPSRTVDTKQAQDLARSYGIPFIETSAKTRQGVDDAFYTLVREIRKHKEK

[5] = system: AsPC-1 cells (K-Ras G12D)
Method: (§1) Each of cells in culture medium was plated in TC-treated 96-well plates at a density indicated in Table 4 and incubated in a cell incubator overnight. The next day, each of compounds was diluted in culture medium and added to the plates. After 6 days incubation in cell incubator, the cell viability was detected by CellTiter-Glo® Cell Viability Assay kit (Promega).

[6] = system: SW620 cells (K-Ras G12V)
Method: as §1

[7] = system: SW620 cells (K-Ras G12V); assay: Phospho-ERK1/2(THR202/TYR204) HTRF assay, SW620; type: cell-based; details: Homo sapiens, SW-620, 2 hours incubation, read-out: pERK, IC50, SW620
Method: Each of cells in culture medium was seeded in 96-well plates at density indicated in Table 4 and put in a cell incubator to incubate overnight. The next day, the culture medium was removed and the compound diluted in assay medium was added in each well. […] 10 μL of cell lysates from the 96-well plates were transferred to a 384-well plate (Greiner) containing 2.5 μL/well HTRF® pre-mixed antibodies (Cisbio 64AERPEH). The plate was incubated 4 hours at 25° C. and read HTRF signals on Tecan Spark multimode microplate reader. The data were analyzed using a 4-parameter logistic model to calculate IC50 values.

Chain of GDP-KRAS G12D (P01116 1-169 isoform P01116-2 G12D): as the sequence (P01116 1-169 isoform P01116-2 G12D) above
Chain of GDP-KRAS G12V (P01116 1-169 isoform P01116-2 G12V): as the sequence (P01116 1-169 isoform P01116-2 G12V) above

SMILES | IC50 [1] [nM] | IC50 [2] [nM] | IC50 [3] [nM] | IC50 [4] [nM] | IC50 [5] [nM] | IC50 [6] [nM] | IC50 [7] [nM]
C[C@H]1CCOC[C@H]2COc3c(Cl)c(-c4ccc(F)c5sc(N)c(C#N)c45)c(F)c4nc(OC[C@@]56CCCN5C[C@H](F)C6)nc(c34)N21 (atropisomer, axis not shown) [Compound 158A] | 0.996 | 0.939 | 10.8 | 4.93 | – | – | –
N#Cc1c(N)sc2c(F)ccc(-c3c(F)c4c5c(nc(OC[C@@]67CCCN6C[C@H](F)C7)nc5c3F)N3CCCOC[C@H]3CO4)c12 (single isomer, unassigned) [Compound 163A] | 301 | 423 | > 1000 | > 1000 | – | – | –
C#Cc1c(F)ccc2cc(N)cc(-c3nc4c5c(nc(OC[C@@]67CCCN6C[C@H](F)C7)nc5c3F)N3CC(C)COC[C@H]3CO4)c12 (stereo partly shown) [Compound 16] | 29.7 | 15.2 | 651 | > 1000 | – | – | –
C#Cc1c(F)ccc2cc(N)cc(-c3nc4c5c(nc(OC[C@@H]6CCN6CC(F)F)nc5c3F)N3CCCOC[C@H]3CO4)c12 [Compound 23] | 30 | 36.2 | – | – | – | – | –
C#Cc1c(F)ccc2cc(N)cc(-c3nc4c5c(nc(OC[C@@]67CCCN6C[C@H](F)C7)nc5c3F)N3CCCC(F)(F)C3CO4)c12 (stereo partly shown) [Compound 28] | 13 | 18.1 | – | – | – | – | –
C#Cc1c(F)ccc2cc(N)cc(-c3nc4c5c(nc(OC[C@@]67CCCN6C[C@H](F)C7)nc5c3F)N3CC(F)COC[C@@H]3CO4)c12 (stereo partly shown) [Compound 29] | – | – | – | – | 620 | 158 | –
C#Cc1c(F)ccc2cc(N)cc(-c3nc4c5c(nc(OC[C@@]67CCCN6C[C@H](F)C7)nc5c3F)N3CC(C)(O)CC[C@H]3CO4)c12 (stereo partly shown) [Compound 30] | – | – | – | – | – | 436 | –
C#Cc1c(F)ccc2cc(N)cc(-c3nc4c5c(nc(OC[C@@]67CCCN6C[C@H](F)C7)nc5c3F)N3[C@H](C)CCOC[C@H]3N4C)c12 [Compound 41] | 5.51 | 4.31 | 376 | > 1000 | 1140 | 40.1 | –
C#Cc1c(F)ccc2cc(N)cc(-c3nc4c5c(nc(OC[C@@]67CCCN6C[C@H](F)C7)nc5c3F)N3C(C(F)F)CCOCC3N4C)c12 (stereo partly shown) [Compound 52] | 2.83 | 1.34 | 146 | 363 | – | – | –
C#Cc1c(F)ccc2cc(N)cc(-c3nc4c5c(nc(OC[C@@]67CCCN6C[C@H](F)C7)nc5c3F)N3CCC=CC[C@H]3C4=C)c12 [Compound 67] | 1.72 | 1.36 | 59.9 | 113 | 136 | 16.2 | 8.74
C#Cc1c(F)ccc2cc(N)cc(-c3nc4c5c(nc(OC[C@@]67CCCN6C[C@H](F)C7)nc5c3F)N3CCCOCC3N4C3CC3)c12 (stereo partly shown) [Compound 68] | 2.18 | 3.49 | 187 | 356 | 169 | 39.3 | 5.95
[2H]C1([2H])OCCCN2c3nc(OC[C@@]45CCCN4C[C@H](F)C5)nc4c(F)c(-c5cc(N)cc6ccc(F)c(C#C)c56)nc(c34)N(C)C21 (stereo partly shown) [Compound 76] | 2.84 | 1.14 | 96.3 | 118 | 76 | 7.86 | 2.08
C#Cc1c(F)ccc2cc(N)cc(-c3nc4c5c(nc(OC[C@@]67CCCN6C[C@H](F)C7)nc5c3F)N3CCC(F)CCC3N4C)c12 (stereo partly shown) [Compound 77] | 7.63 | 15.1 | 177 | – | 103 | – | –
C#Cc1c(F)ccc2cc(N)cc(-c3nc4c5c(nc(OC[C@@]67CCCN6C[C@H](F)C7)nc5c3F)N3CCCOCC3N4C(C)=O)c12 (stereo partly shown) [Compound 78] | 21.3 | 10 | > 1000 | > 1000 | – | – | –
C#Cc1c(F)ccc2cc(N)cc(-c3nc4c5c(nc(OC[C@@]67CCCN6C[C@H](F)C7)nc5c3F)N3CCCC=C(F)C3N4C)c12 (stereo partly shown) [Compound 80] | 10.6 | 12.2 | 314 | > 1000 | – | – | –
C#Cc1c(F)ccc2cc(N)cc(-c3nc4c5c(nc(OC[C@@]67CCCN6C[C@H](F)C7)nc5c3F)N3CCC(F)(F)CCC3N4C)c12 (stereo partly shown) [Compound 81] | 78.8 | 89.3 | > 1000 | > 1000 | – | – | –
C#Cc1c(F)ccc2cc(N)cc(-c3nc4c5c(nc(OC[C@@]67CCCN6C[C@H](F)C7)nc5c3F)N3CCCC/C(=C/F)C3N4C)c12 (stereo partly shown) [Compound 86] | 10.3 | 9.94 | > 1000 | > 1000 | – | 412 | –
C#Cc1c(F)ccc2cc(N)cc(-c3nc4c5c(nc(OC[C@@]67CCCN6C[C@H](F)C7)nc5c3F)N3CCCC(O)CC3N4C)c12 (stereo partly shown) [Compound 87] | 33.3 | 29.9 | 882 | > 1000 | – | – | –
C#Cc1c(F)ccc2cc(N)cc(-c3nc4c5c(nc(OC[C@@]67CCCN6C[C@H](F)C7)nc5c3F)N3[C@@H](C)CCOC[C@H]3N4C3CC3)c12 [Compound 90] | 3.72 | 1.28 | 190 | 898 | 415 | 40.6 | 9.38
C#Cc1c(F)ccc2cc(N)cc(-c3nc4c5c(nc(OC[C@@]67CCCN6C[C@H](F)C7)nc5c3F)N3C(C5CCC5)CCOCC3N4C)c12 (stereo partly shown) [Compound 105] | 44.1 | 19.5 | > 1000 | > 1000 | – | – | –
C#Cc1c(F)ccc2cc(N)cc(-c3nc4c5c(nc(OC[C@@]67CCCN6C[C@H](F)C7)nc5n5c(n4C)=CC=CCC5)c3F)c12 [Compound 112] | 33.4 | 21.6 | 921 | > 1000 | – | – | –
C#Cc1c(F)ccc2cc(N)cc(-c3nc4c5c(nc(OC[C@@]67CCCN6C[C@H](F)C7)nc5c3F)N3C(COCCN3C)N4C)c12 (stereo partly shown) [Compound 118] | 11.2 | 11.7 | – | > 1000 | – | – | –
C#Cc1c(F)ccc2cc(N)cc(-c3nc4c5c(nc(OC[C@@]67CCCN6C[C@H](F)C7)nc5c3F)N3CC(F)CC[C@H](F)[C@H]3N4C)c12 (stereo partly shown) [Compound 134] | 1.75 | 1.44 | 21.6 | 50.4 | – | – | –
C#Cc1c(F)ccc2cc(N)cc(-c3nc4c5c(nc(OC[C@@]67CCCN6C[C@H](F)C7)nc5c3F)N3C/C(=N\OC)COC[C@H]3N4C)c12 [Compound 137] | 1.86 | 1.84 | 210 | 486 | – | – | –
N#Cc1c(N)sc2c(F)ccc(-c3cc4c5c(nc(OC[C@@]67CCCN6C[C@H](F)C7)nc5c3F)N3CCCCC[C@H]3CO4)c12 [Compound 139] | 19.6 | 21.6 | – | > 1000 | – | – | –
C#Cc1c(F)ccc2cc(N)cc(-c3nc4c5c(nc(OCC6(CN7CCOCC7)CCC6)nc5c3F)N3CCCOCC3N4C)c12 (stereo not shown) [Compound 140] | 13.8 | 7.11 | > 1000 | > 1000 | – | – | –
C#Cc1c(F)ccc2cc(N)cc(-c3nc4c5c(nc(OCC(CN6CCOCC6)OC)nc5c3F)N3CCCOCC3N4C)c12 (stereo not shown) [Compound 142] | 233 | 65.4 | > 1000 | > 1000 | – | – | –
C#Cc1c(F)ccc2cc(N)cc(-c3nc4c5c(nc(OC[C@@]67CCCN6C[C@H](F)C7)nc5c3F)N3C(CCCC[C@@H]3C(C)O)N4C)c12 (stereo partly shown) [Compound 143] | 2.51 | 2.94 | 246 | 631 | – | – | –
C#Cc1c(F)ccc2cc(N)cc(-c3nc4c5c(nc(OC[C@@]67CCCN6C[C@H](F)C7)nc5c3F)N3C/C(=N\OC)COC[C@@H]3N4C)c12 [Compound 148] | 287 | 403 | > 1000 | > 1000 | – | – | –
C#Cc1c(F)ccc2cc(N)cc(-c3nc4c5c(nc(OC[C@@]67CCCN6C[C@H](F)C7)nc5c3F)N3CCCC3N4C)c12 (stereo partly shown) [Compound 153] | 83.4 | 13.7 | > 1000 | > 1000 | – | – | –
